From publication PMC8162404, “Proteomimetic surface fragments distinguish targets by function” (Chemical Science, 2020)
Like-named read-outs stand apart in the source and are kept apart here.

Assays:
Gal-1 [1] = target: Gal-1; parameters: method as in PMID 15476813; details: native ligand used as competitor; cited from earlier work
S100A4 [2] = target: T1, S100A4 (Homo sapiens, UniProt P26447); assay: Competition pull-down with native ligand NMIIA (1893–1923); format: binding; details: H14 library; competitor peptide 200 µM; read-out: Surface mapping KD (apparent), competition
T1 construct: made in house; host or cells: Escherichia coli BL21(DE3)
T1 sequence (P26447 whole entry): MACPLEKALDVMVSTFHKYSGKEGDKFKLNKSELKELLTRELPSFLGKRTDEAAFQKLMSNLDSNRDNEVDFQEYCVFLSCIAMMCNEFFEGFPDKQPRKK

RecQ-WH [3] = target: T2, RecQ-WH (Escherichia coli, UniProt P15043); assay: Pull-down assay with immobilized protein and LSM libraries; parameters: species or system E. coli; details: H14 library; 1:1 binding assumed; read-out: Surface mapping KD (apparent)
T2 construct: coding for residues 408– 523 of E. coli RecQ; made in house; host or cells: E. coli BL21(DE3)
T2 sequence (P15043 408-523): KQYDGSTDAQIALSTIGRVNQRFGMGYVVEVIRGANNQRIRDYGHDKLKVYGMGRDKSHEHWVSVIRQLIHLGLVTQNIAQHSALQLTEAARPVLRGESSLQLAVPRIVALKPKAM
Method in brief: (§1)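 His-tagged protein immobilized on Co-NTA resin (64 µM) in 20 mM HEPES pH 7.4, 150 mM NaCl, equilibrated 30 min at room temperature with foldamer LSM sublibraries at equimolar total concentration. Unbound fractions quantified by HPLC-MS versus protein-free resin control; apparent KD assumes 1:1 binding.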

RecQ-WH [4] = target: T2, RecQ-WH; assay: Competition pull-down with native ligand SSB-Ct8; format: binding, E. coli; details: H14 library; competitor peptide 200 µM; read-out: Surface mapping KD (apparent), competition
S100B [5] = target: T3, S100B (Homo sapiens, UniProt P04271); assay: Competition pull-down with native ligand RSK1 (689–735); format: binding; details: H14 library; competitor peptide 200 µM; read-out: Surface mapping KD (apparent), competition
T3 construct: made in house; host or cells: Escherichia coli BL21(DE3)
T3 sequence (P04271 1-92): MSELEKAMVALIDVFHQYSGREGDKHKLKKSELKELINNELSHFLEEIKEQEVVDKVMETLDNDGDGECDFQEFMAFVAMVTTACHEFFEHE

S100A4 [6] = target: T1, S100A4; assay: Pull-down assay with immobilized protein and LSM libraries; format: binding; details: for Kd: H14 library, 1:1 binding assumed, read-out: Surface mapping KD (apparent); for Affinity class of probe (high, medium, low) in pull-down: H14 probes selected for validation
Method in brief: (§2)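 Buffers were HEPES pH 7.4 with 150 mM NaCl, plus 1 mM TCEP and 1 mM CaCl2 (50 mM HEPES) for S100A4 and S100B, 1 mM TCEP for Gal-1, and no additive for RecQ-WH. Immobilized protein at 64 µM was equilibrated 30 min with the LSM sublibrary, and unbound probes were measured by LC-MS.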

Gal-1 [7] = target: T4, Gal-1 (Homo sapiens, UniProt P09382); assay: as above; format: binding; details: H14 library; 1:1 binding assumed; read-out: Surface mapping KD (apparent)
T4 construct: made in house; host or cells: E. coli BL21(DE3)
T4 sequence (P09382 whole entry): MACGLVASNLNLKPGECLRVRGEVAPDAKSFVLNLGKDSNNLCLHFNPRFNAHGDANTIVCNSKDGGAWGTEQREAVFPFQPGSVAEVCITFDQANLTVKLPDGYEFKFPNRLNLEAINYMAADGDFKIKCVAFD
Method in brief: as §1

S100B [8] = target: T3, S100B; assay: as above; format: binding; details: for Kd: H14 library, 1:1 binding assumed, read-out: Surface mapping KD (apparent); for Affinity class of probe (high, medium, low) in pull-down: H14 probes selected for validation
Method in brief: as §2

CaM [9] = target: T5, CaM (Bos taurus, UniProt P62157); assay: Competition pull-down with native ligand TRPV1-Ct15; format: binding, bovine; details: H14 library; competitor peptide 200 µM; read-out: Surface mapping KD (apparent), competition
T5 construct: made in house; host or cells: E. coli BL21 (DE3)

Gal-1 [10] = target: T4, Gal-1; assay: Competition pull-down with lactose; format: binding; details: H14 library; lactose 10 mM; read-out: Surface mapping KD (apparent), competition
Method in brief: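 His6-tagged proteins immobilized on Co-NTA resin at 64 µM final with 64-member LSM foldamer sublibraries (1 M each, as printed) in pH 7.4 HEPES/NaCl buffers (Ca2+/TCEP per target), 30 min RT; competitor peptides 200 µM final, lactose 10 mM for Gal-1. Bound fractions from LC-MS loss vs protein-free resin; KD assuming 1:1 binding.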

CaM [11] = target: T5, CaM; assay: Pull-down assay with immobilized protein and LSM libraries; format: binding, bovine; details: H14 library; 1:2 stoichiometry assumed; read-out: Surface mapping KD (apparent)
Method in brief: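 His-tagged protein immobilized on Co-NTA resin, equilibrated 30 min at room temperature with LSM sublibraries (64 members, […]), equimolar protein to total probe. CaM buffer: 20 mM HEPES pH 7.4, 150 mM NaCl, 5 mM CaCl2. Bound fractions from HPLC-MS loss of unbound probe versus protein-free resin control; Kd derived.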

S100A4 [12] = target: T1, S100A4; parameters: method as in PMID 26527685; details: native ligand used as competitor; cited from earlier work
S100B [13] = target: T3, S100B; parameters: method as in PMID 26527685; details: native ligand used as competitor; cited from earlier work

Molecule | Kd (Gal-1 [1]) [µM] | Kd (S100A4 [2]) [µM] | Kd (RecQ-WH [3]) [µM] | Kd (RecQ-WH [4]) [µM] | Kd (S100B [5]) [µM] | Kd (S100A4 [6]) [µM] | Kd (Gal-1 [7]) [µM] | Kd (S100B [8]) [µM] | Kd (CaM [9]) [µM] | Kd (Gal-1 [10]) [µM] | Kd (CaM [11]) [nM] | Affinity class of probe (high, medium, low) in pull-down (S100A4 [6]) | Affinity class of probe (high, medium, low) in pull-down (S100B [8]) | Kd (S100A4 [12]) [nM] | Kd (S100B [13]) [nM]
OC[C@H]1O[C@@H](O[C@H]2[C@H](O)[C@@H](O)C(O)O[C@@H]2CO)[C@H](O)[C@@H](O)[C@H]1O (mixture of isomers) [Lactose] | 409 | – | – | – | – | – | – | – | – | – | – | – | – | – | –
CC(C)C[C@@H](CC(=O)N[C@H]1CCCC[C@@H]1C(=O)N[C@H]1CCCC[C@@H]1C(=O)N[C@H](CC(=O)N[C@H]1CCCC[C@@H]1C(N)=O)Cc1c[nH]c2ccccc12)NC(=O)[C@H]1CCCC[C@@H]1N [H14 LW] | – | 244 | 195 | 315 | 67 | 8 | 38 | 21 | 88 | 65 | 400 | – | – | – | –
CC[C@H](C)[C@@H](CC(=O)N[C@H]1CCCC[C@@H]1C(N)=O)NC(=O)[C@H]1CCCC[C@@H]1NC(=O)[C@H]1CCCC[C@@H]1NC(=O)C[C@H](Cc1c[nH]c2ccccc12)NC(=O)[C@H]1CCCC[C@@H]1N [H14 WI] | – | 255 | 68 | 142 | 123 | 10 | 71 | 12 | 55 | 105 | 1000 | – | – | – | –
CC(C)C[C@@H](CC(=O)N[C@H]1CCCC[C@@H]1C(N)=O)NC(=O)[C@H]1CCCC[C@@H]1NC(=O)[C@H]1CCCC[C@@H]1NC(=O)C[C@H](Cc1c[nH]c2ccccc12)NC(=O)[C@H]1CCCC[C@@H]1N [H14 WL] | – | 255 | 68 | 142 | 123 | 10 | 71 | 12 | 55 | 105 | 1000 | high | high | – | –
NC(=O)[C@H]1CCCC[C@@H]1NC(=O)C[C@H](Cc1c[nH]c2ccccc12)NC(=O)[C@H]1CCCC[C@@H]1NC(=O)[C@H]1CCCC[C@@H]1NC(=O)C[C@H](Cc1c[nH]c2ccccc12)NC(=O)[C@H]1CCCC[C@@H]1N [H14 WW] | – | 462 | 40 | 84 | 138 | 23 | 30 | 19 | 35 | 51 | 1200 | medium | high | – | –
NC(=O)[C@H]1CCCC[C@@H]1NC(=O)C[C@H](Cc1ccc(O)cc1)NC(=O)[C@H]1CCCC[C@@H]1NC(=O)[C@H]1CCCC[C@@H]1NC(=O)C[C@H](Cc1c[nH]c2ccccc12)NC(=O)[C@H]1CCCC[C@@H]1N [H14 WY] | – | 367 | 50 | 193 | 104 | 35 | 145 | 66 | 119 | 222 | 2000 | – | – | – | –
NC(=O)[C@H]1CCCC[C@@H]1NC(=O)C[C@H](Cc1c[nH]c2ccccc12)NC(=O)[C@H]1CCCC[C@@H]1NC(=O)[C@H]1CCCC[C@@H]1NC(=O)C[C@H](Cc1ccc(O)cc1)NC(=O)[C@H]1CCCC[C@@H]1N [H14 YW] | – | 391 | 46 | 164 | 38 | 25 | 115 | 42 | 404 | 112 | 2000 | – | – | – | –
NMIIA (1893–1923): peptide motif of non-muscle myosin IIA, native ligand competitor for S100A4 | – | – | – | – | – | – | – | – | – | – | – | – | – | 7 ± 1 | –
RSK1 (689–735): peptide motif of ribosomal S6 kinase 1, native ligand competitor for S100B (QDLQLVKGAMAATYSALNSSKPTPQLKPIESSILAQRRVRKLPSTTL; UniProt Q15418 689-735, looked up, fragment) | – | – | – | – | – | – | – | – | – | – | – | – | – | – | 1800
